inhibition, Ki and Kd data for two compounds are collected here from ChEMBL document CHEMBL4507258 (2021).

Some results are limits rather than exact numbers.

For data set [1], the target named is 5-hydroxytryptamine receptor 6 (Homo sapiens) (UniProt P50406). The note with it: Compound concentration 10.0 uM.
The target in data set [2] is Alpha-2C adrenergic receptor (Homo sapiens, UniProt P18825). Put plainly: GPCRScan assay: inhibition of Alpha2C. Further details: radioligand conc. used [nm] 0.5 – 1.0, parental cells stable MDCK.
For data set [3], the target named is Muscarinic acetylcholine receptor M1 (Homo sapiens) (UniProt P11229). The following applies: Compound concentration 10.0 uM.
For data set [4], the target named is Alpha-2A adrenergic receptor (Homo sapiens) (UniProt P08913). The following applies: Compound concentration 10.0 uM.
Data set [5] has as its target Muscarinic acetylcholine receptor M5 (Homo sapiens) (UniProt P08912). The note with it: Compound concentration 10.0 uM.
Data set [6] concerns the target Alpha-1D adrenergic receptor (Homo sapiens) (UniProt P25100). The note with it: Compound concentration 10.0 uM.
In data set [7] the target is 5-hydroxytryptamine receptor 2C (Homo sapiens) (UniProt P28335). The following applies: Compound concentration 10.0 uM.
The target of data set [8] is 5-hydroxytryptamine receptor 1A (Homo sapiens, UniProt P08908). Put plainly: GPCRScan assay: inhibition of 5-HT1A. Further details: radioligand conc. used [nm] 0.5 – 1.0, parental cells stable CHO.
Data set [9] concerns the target 5-hydroxytryptamine receptor 7 (Homo sapiens) (UniProt P34969). The following applies: Compound concentration 10.0 uM.
Data set [10] deals with Endothelin-1 receptor (Homo sapiens) (UniProt P25101). The note with it: Compound concentration 10.0 uM.
For data set [11], the target named is T1, Muscarinic acetylcholine receptor M2 (Homo sapiens) (UniProt P08172).
T1 sequence (whole entry): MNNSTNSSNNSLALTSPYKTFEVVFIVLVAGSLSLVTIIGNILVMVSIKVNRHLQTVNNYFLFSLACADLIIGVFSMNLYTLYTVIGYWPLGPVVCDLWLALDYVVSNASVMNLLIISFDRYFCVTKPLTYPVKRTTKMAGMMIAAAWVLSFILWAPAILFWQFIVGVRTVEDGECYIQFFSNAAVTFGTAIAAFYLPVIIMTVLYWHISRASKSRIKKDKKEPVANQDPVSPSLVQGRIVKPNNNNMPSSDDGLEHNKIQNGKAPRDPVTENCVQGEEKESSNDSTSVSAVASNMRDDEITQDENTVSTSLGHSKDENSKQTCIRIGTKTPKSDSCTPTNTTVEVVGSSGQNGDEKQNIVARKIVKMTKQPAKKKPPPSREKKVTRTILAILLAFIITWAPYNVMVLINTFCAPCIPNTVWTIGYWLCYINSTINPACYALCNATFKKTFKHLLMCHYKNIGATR
Put plainly: Muscarinic M2 receptors (h) CEREP ligand profiling. The note with it: Compound concentration 10.0 uM.

Data set [12] deals with 5-hydroxytryptamine receptor 2A (Homo sapiens) (UniProt P28223). Put plainly: 5-Hydroxytryptamine2A (h) CEREP ligand profiling. The following applies: Compound concentration 10.0 uM.
For data set [13], the target named is D(1A) dopamine receptor (Homo sapiens) (UniProt P21728). Put plainly: Dopamine D1 receptor (h) CEREP ligand profiling. The following applies: Compound concentration 10.0 uM.
Data set [14] deals with Voltage-gated (volt-dependent) potassium channel (Homo sapiens, UniProt O43525+O43526+O95259+P16389+P17658+P22001+P22459+P22460+P48547+P51787+P56696+Q03721+Q09470+Q12809+Q14003+Q14721+Q16322+Q6PIU1+Q8NCM2+Q8TAE7+Q8TDN1+Q8TDN2+Q92953+Q96KK3+Q96L42+Q96PR1+Q96RP8+Q9BQ31+Q9H252+Q9H3M0+Q9NR82+Q9NS40+Q9NSA2+Q9NZV8+Q9UIX4+Q9UJ96+Q9UK17+Q9ULD8+Q9ULS6+Q9UQ05). Put plainly: K+ channel (volt-dependent) CEREP ligand profiling. It is filed as protein assay. The following applies: compound concentration 10 uM.

The target in data set [15] is T2, 5-hydroxytryptamine receptor 3A (Homo sapiens) (UniProt P46098).
T2 sequence (whole entry): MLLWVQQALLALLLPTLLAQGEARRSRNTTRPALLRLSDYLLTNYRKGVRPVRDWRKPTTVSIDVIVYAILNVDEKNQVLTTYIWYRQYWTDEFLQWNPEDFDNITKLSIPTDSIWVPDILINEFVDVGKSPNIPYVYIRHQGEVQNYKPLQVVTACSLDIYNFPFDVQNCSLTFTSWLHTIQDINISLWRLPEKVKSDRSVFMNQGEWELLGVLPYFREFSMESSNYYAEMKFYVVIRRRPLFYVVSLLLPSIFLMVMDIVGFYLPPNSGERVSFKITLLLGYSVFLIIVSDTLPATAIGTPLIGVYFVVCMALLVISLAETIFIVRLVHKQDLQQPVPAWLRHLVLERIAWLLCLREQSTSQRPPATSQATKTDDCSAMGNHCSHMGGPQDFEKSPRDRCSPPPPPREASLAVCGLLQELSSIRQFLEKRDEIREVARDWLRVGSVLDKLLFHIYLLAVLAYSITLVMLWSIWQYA
Put plainly: 5-Hydroxytryptamine3 CEREP ligand profiling. The following applies: Compound concentration 10.0 uM.

The target in data set [16] is Histamine H1 receptor (Homo sapiens, UniProt P35367). Put plainly: Histamine H1 receptor (central) CEREP ligand profiling. The following applies: Compound concentration 10.0 uM.
Data set [17] addresses Cannabinoid receptor 1 (Homo sapiens) (UniProt P21554). Put plainly: Cannabinoid CB1 receptor (h) CEREP ligand profiling. The following applies: Compound concentration 10.0 uM.
Data set [18] concerns the target Gastrin/cholecystokinin type B receptor (Homo sapiens) (UniProt P32239). Put plainly: CholecystokininB receptor (h) CEREP ligand profiling. The following applies: Compound concentration 10.0 uM.
Data set [19] deals with Voltage-gated L-type calcium channel (verapamil site) (Homo sapiens, UniProt O60840+Q01668+Q13698+Q13936). Put plainly: Ca2+ channel (L, verapamil site) CEREP ligand profiling. The class given is protein assay. The following applies: compound concentration 10 uM.
Data set [20] deals with Mu-type opioid receptor (Homo sapiens, UniProt P35372). Put plainly: mu-Opioid receptor (h) CEREP ligand profiling. The following applies: Compound concentration 10.0 uM.
For data set [21], the target named is Neuropeptide Y receptor type 2 (Homo sapiens) (UniProt P49146). Put plainly: Y2 receptor CEREP ligand profiling. The following applies: Compound concentration 10.0 uM.
In data set [22] the target is Melatonin receptor type 1A (Homo sapiens) (UniProt P48039). Put plainly: Melatonin ML1 receptor CEREP ligand profiling. The following applies: Compound concentration 10.0 uM.
Data set [23] has as its target Platelet-derived growth factor receptor (Homo sapiens) (UniProt P09619+P16234). Put plainly: Platlet-derived growth factor receptor CEREP ligand profiling. The class given is protein-complex assay. The following applies: Compound concentration 10.0 uM.
The target in data set [24] is Muscarinic acetylcholine receptor M4 (Homo sapiens) (UniProt P08173). Put plainly: Muscarinic M4 receptors (h) CEREP ligand profiling. The following applies: Compound concentration 10.0 uM.
For data set [25], the target named is Beta-2 adrenergic receptor (Homo sapiens) (UniProt P07550). Put plainly: beta2-adrenoceptor (h) CEREP ligand profiling. The note with it: Compound concentration 10.0 uM.
The target of data set [26] is Cannabinoid receptor 2 (Homo sapiens) (UniProt P34972). Put plainly: Cannabinoid CB2 receptor (h) CEREP ligand profiling. The following applies: Compound concentration 10.0 uM.
For data set [27], the target named is P2Y receptor (Homo sapiens) (UniProt Q9H244+P51582+P47900+P41231+Q15391+Q15077+Q96G91+Q9BPV8). Put plainly: P2Y-purinergic receptor CEREP ligand profiling. The class given is protein assay. The following applies: Compound concentration 10.0 uM.
Data set [28] addresses D(1B) dopamine receptor (Homo sapiens) (UniProt P21918). Put plainly: Dopamine D5 receptor (h) CEREP ligand profiling. The note with it: Compound concentration 10.0 uM.
Data set [29] has as its target Serine/threonine-protein kinase SIK1 (Homo sapiens, UniProt P57059). Put plainly: Inhibition of SIK1 at compound concentration of 10.0 uM using the ScanMax (DiscoverX).

5-hydroxytryptamine receptor 7 (Homo sapiens), sequence (P34969 whole entry): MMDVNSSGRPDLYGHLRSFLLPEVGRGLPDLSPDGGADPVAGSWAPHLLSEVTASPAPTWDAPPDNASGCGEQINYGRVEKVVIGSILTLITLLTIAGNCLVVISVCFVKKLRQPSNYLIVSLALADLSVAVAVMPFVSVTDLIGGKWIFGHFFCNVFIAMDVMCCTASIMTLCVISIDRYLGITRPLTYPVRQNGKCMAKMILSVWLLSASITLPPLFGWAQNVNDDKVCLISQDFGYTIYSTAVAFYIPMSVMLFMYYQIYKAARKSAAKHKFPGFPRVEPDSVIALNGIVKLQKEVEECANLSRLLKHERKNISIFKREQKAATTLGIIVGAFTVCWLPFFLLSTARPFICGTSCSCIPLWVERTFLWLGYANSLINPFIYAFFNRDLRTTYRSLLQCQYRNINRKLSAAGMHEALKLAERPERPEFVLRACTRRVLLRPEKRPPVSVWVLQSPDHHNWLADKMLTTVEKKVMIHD
Histamine H1 receptor, sequence (P35367 whole entry): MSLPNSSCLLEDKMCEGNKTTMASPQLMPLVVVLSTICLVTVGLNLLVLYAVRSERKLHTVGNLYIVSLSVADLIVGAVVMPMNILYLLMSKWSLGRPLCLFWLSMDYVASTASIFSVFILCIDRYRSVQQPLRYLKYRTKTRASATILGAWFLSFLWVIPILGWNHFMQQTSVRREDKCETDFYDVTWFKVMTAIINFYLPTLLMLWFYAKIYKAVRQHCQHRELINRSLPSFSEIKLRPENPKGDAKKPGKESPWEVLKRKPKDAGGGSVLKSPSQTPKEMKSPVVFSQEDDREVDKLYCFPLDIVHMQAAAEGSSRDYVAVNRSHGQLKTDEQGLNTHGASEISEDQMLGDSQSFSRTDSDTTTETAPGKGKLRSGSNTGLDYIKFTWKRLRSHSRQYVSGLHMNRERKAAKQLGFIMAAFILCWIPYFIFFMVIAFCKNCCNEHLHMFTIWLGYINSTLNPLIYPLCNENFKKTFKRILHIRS
Alpha-2C adrenergic receptor, sequence (P18825 whole entry): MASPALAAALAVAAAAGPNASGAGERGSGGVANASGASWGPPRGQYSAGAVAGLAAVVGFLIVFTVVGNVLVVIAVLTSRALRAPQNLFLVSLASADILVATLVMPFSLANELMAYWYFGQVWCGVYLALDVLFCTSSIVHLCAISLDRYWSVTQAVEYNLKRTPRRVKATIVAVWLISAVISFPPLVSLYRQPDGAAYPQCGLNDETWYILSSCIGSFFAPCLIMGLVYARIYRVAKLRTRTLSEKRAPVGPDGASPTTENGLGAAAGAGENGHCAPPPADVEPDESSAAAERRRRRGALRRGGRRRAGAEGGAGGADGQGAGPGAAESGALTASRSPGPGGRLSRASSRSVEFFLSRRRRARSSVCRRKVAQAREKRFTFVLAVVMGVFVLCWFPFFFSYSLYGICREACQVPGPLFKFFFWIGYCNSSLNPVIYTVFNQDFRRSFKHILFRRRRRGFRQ
Cannabinoid receptor 1 (Homo sapiens), sequence (P21554 whole entry): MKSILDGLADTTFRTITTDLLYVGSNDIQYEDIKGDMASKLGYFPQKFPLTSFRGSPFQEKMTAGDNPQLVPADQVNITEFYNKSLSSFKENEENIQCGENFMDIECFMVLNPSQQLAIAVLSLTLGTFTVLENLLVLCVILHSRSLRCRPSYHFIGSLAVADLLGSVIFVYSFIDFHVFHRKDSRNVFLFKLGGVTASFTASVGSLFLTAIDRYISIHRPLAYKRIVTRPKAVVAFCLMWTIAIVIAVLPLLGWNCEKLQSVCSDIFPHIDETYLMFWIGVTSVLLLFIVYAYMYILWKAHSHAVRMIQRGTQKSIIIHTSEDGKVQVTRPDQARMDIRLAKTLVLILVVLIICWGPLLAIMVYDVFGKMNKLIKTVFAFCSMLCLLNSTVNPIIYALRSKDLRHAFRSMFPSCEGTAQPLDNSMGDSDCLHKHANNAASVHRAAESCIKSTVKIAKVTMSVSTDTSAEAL
Gastrin/cholecystokinin type B receptor (Homo sapiens), sequence (P32239 whole entry): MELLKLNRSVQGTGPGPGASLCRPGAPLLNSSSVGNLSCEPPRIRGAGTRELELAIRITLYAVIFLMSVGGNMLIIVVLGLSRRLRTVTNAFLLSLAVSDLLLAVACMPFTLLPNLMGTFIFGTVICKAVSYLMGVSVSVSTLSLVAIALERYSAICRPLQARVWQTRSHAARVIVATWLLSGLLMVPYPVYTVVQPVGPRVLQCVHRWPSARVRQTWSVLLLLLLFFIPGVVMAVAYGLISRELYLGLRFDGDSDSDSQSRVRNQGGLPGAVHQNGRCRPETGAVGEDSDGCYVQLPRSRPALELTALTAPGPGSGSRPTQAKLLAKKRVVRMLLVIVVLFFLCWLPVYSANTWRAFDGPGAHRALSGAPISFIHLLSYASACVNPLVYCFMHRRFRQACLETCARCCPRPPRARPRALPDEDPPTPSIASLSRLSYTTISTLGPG
D(1A) dopamine receptor (Homo sapiens), sequence (P21728 whole entry): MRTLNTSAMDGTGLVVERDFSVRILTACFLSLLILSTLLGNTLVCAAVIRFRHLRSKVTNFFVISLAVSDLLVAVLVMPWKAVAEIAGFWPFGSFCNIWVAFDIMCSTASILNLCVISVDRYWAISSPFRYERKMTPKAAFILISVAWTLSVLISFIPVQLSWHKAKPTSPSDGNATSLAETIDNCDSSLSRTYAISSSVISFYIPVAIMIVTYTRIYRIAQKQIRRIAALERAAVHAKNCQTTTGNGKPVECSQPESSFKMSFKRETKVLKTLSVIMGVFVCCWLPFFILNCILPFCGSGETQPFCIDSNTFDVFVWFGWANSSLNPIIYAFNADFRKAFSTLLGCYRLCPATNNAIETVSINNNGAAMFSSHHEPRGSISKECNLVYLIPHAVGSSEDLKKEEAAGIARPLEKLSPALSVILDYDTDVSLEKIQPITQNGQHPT
5-hydroxytryptamine receptor 2C (Homo sapiens), sequence (P28335 whole entry): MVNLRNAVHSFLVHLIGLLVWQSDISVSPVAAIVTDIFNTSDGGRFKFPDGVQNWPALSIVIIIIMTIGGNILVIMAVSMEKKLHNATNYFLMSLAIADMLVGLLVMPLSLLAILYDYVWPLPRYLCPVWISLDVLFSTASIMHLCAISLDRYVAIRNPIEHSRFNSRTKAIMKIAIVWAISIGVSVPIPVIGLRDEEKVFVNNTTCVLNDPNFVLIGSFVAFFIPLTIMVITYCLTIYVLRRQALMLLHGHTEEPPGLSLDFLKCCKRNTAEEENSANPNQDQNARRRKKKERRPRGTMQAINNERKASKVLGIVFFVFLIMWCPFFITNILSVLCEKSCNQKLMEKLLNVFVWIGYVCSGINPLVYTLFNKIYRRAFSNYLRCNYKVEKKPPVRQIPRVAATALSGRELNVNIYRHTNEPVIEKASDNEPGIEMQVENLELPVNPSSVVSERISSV
Mu-type opioid receptor, sequence (P35372 whole entry): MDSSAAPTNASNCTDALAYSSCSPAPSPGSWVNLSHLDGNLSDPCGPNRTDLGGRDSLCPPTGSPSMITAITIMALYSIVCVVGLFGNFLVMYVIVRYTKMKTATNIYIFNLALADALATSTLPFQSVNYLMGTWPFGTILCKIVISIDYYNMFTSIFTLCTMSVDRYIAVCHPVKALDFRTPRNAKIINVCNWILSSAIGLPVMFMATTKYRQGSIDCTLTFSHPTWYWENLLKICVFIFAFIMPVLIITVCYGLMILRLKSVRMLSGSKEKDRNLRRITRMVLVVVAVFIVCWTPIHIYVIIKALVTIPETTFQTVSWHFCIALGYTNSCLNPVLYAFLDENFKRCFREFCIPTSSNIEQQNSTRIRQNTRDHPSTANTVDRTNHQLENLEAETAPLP
5-hydroxytryptamine receptor 1A, sequence (P08908 whole entry): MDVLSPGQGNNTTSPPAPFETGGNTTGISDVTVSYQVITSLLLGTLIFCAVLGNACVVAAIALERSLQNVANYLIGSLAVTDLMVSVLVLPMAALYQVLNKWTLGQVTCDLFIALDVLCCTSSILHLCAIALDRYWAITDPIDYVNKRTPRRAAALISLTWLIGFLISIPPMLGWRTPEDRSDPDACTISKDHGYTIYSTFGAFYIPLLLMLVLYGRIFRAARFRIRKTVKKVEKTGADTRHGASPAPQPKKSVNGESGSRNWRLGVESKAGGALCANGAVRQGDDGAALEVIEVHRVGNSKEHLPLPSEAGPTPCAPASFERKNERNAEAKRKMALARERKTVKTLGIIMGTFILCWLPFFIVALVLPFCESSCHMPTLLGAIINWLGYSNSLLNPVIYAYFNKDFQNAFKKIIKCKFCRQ
Muscarinic acetylcholine receptor M1 (Homo sapiens), sequence (P11229 whole entry): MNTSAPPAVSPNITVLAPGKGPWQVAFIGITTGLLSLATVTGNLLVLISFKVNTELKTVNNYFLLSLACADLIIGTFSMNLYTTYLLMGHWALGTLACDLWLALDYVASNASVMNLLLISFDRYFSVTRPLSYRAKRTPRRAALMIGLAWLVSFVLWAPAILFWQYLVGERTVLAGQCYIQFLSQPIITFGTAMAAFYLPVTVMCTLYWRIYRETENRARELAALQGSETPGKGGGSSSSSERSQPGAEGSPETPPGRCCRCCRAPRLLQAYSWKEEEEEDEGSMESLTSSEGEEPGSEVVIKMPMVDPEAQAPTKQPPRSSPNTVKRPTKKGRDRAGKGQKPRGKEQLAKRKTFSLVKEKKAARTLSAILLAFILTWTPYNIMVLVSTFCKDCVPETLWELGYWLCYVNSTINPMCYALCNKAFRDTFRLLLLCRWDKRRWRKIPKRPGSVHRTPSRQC
Endothelin-1 receptor (Homo sapiens), sequence (P25101 whole entry): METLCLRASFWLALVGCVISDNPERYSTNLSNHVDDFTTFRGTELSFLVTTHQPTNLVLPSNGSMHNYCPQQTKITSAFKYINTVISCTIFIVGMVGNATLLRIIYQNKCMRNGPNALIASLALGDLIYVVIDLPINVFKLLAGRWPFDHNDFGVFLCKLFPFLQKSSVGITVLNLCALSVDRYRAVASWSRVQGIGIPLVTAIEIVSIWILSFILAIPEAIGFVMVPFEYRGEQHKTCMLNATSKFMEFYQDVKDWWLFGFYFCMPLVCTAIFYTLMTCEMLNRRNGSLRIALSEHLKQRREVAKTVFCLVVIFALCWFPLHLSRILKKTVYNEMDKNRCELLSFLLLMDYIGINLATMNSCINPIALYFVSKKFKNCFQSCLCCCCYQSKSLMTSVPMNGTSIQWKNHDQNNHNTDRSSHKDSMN

The inhibition is the change of the read-out against control, counted positive when it falls. By Ki is commonly meant a measure of affinity in units of concentration, obtained from inhibition or displacement. For the compound `CCCCN(CCCC)C(=O)CN1C[C@@H](c2cc(OC)c3c(c2)OCO3)[C@H](C(=O)O)[C@H]1CC(C)(C)CCC` [A-545], the inhibition is 33.5% in [1]; 12.4% in data set [3]; 19.1% in data set [4]; 1.1% in [5]; 6.55% in [6]; 15.7% in data set [7]. The Ki came to 5.77 µM in [2] and 189 nM in [8].

By Kd is commonly meant the constant that tells how readily two partners part at equilibrium. Read a high Kd as weaker binding. For `CCCCN(CCCC)C(=O)CN1C[C@H](c2cc(OC)c3c(c2)OCO3)[C@@H](C(=O)O)[C@@H]1CC(C)(C)CCC` [ABT-546], the inhibition in [9] is -2.24%; in [10] it was 98%; in [11], below 10%; in [12], below 10%; in data set [13], 14%; in data set [15], below 10%. Also, the inhibition in data set [16] was below 10%; in data set [17], below 10%; in data set [18], below 10%; in data set [20] it was 17%; in data set [21], below 10%; in [22], 12%. Moreover, the inhibition is below 10% in data set [23]; below 10% in data set [24]; below 10% in data set [25]; 11% in data set [26]; below 10% in data set [27]; below 10% in data set [28]. The results for the inhibition at 10 µM in [14] and in [19] were < 10% (not active) and 29% (not active), respectively. In data set [29], the Kd is > 10 µM (not active).
